# Entries after “also recorded” stand apart in the source; their conditions may differ.
# Experiments:
# hMOR = hMOR (Homo sapiens, UniProt P35372); assay: cell-based; format: cell-based; settings: for Emax: CHO-K1, read-out: cAMP accumulation Emax %
# CYP3A = CYP3A (Homo sapiens, UniProt P08684); assay: CYP inhibition in human liver microsomes, midazolam 1′-hydroxylation; settings: for Inhibition of CYP3A activity (in words): human liver microsomes, extracts 2, 10, 20 µg/mL, alkaloids 1, 10, 100 µM
# Chain of CYP3A (P08684 2-503): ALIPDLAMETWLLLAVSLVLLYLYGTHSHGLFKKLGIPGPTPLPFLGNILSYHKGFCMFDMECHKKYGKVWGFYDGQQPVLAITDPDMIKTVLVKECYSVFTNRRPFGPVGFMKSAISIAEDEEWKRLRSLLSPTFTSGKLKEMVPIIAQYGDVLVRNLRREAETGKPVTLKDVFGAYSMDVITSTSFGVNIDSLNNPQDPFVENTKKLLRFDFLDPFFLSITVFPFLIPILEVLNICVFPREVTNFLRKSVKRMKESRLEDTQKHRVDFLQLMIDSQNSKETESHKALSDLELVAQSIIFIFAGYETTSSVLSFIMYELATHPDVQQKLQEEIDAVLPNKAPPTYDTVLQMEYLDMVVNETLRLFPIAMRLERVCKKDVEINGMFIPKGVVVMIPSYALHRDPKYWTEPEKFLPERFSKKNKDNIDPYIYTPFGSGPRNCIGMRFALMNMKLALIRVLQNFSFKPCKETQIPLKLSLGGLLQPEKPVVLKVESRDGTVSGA
# [1] = test system: human µ-opioid receptor (hMOR); settings: cited from earlier work
# CYP2C9 = CYP2C9 (Homo sapiens, UniProt P11712); assay: CYP inhibition in human liver microsomes, diclofenac 4′-hydroxylation; settings: for Inhibition of CYP2C9 activity (in words): human liver microsomes, extracts 2, 10, 20 µg/mL, alkaloids 1, 10, 100 µM
# Chain of CYP2C9 (P11712 whole entry): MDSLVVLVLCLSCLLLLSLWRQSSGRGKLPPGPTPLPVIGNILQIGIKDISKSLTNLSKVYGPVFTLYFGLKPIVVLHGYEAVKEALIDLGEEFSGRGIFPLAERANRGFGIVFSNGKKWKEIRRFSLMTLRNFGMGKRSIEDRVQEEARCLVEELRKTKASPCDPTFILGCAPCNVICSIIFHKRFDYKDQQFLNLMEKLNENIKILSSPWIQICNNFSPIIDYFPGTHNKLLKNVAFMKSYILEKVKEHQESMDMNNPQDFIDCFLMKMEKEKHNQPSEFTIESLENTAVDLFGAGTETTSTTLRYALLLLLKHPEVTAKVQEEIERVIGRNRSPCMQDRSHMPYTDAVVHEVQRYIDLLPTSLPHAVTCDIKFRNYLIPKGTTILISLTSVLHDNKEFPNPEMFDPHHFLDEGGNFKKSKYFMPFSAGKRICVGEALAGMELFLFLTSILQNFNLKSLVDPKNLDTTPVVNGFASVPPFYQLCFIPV
# µ-opioid receptor [2] = biological target: T1, µ-opioid receptor (Homo sapiens, UniProt P35372); format: cell-based
# T1 sequence (P35372 whole entry): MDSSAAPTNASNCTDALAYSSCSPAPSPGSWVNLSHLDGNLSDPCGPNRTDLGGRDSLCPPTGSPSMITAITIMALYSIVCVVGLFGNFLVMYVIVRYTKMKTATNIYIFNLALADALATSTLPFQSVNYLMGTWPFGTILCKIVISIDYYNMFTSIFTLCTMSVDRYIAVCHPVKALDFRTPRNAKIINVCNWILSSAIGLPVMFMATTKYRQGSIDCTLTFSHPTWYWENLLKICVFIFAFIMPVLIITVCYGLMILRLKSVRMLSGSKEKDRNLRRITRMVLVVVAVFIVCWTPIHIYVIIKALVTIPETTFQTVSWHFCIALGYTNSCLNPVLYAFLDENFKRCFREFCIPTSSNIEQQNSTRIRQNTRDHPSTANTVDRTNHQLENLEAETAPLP
# human δ-opioid receptor = biological target: T2, human δ-opioid receptor (Homo sapiens, UniProt P41143); assay: Competitive radioligand binding, δ-opioid receptor; settings: for Affinity at δ-opioid receptor (in words): competitive radioligand binding, HEK293; for Ki: competitive binding against 3H-deltorphin, HEK293 cell membranes, minimum of three replicates, read-out: Receptor binding affinity (Ki ± SEM, nM) δ-opioid
# T2 construct: expressed in transfected cells
# T2 sequence (P41143 whole entry): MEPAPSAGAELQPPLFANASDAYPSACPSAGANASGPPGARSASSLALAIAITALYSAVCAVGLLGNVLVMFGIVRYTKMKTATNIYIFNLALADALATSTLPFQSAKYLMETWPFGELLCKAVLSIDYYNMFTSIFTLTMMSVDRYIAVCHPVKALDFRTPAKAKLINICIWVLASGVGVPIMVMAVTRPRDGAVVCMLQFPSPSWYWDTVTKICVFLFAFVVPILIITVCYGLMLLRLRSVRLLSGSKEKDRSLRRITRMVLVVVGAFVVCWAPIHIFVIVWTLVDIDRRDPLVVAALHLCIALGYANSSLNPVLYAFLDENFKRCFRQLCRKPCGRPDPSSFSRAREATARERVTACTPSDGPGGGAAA
# µ-opioid receptor [3] = biological target: T1, µ-opioid receptor; assay: biochemical; format: binding; parameters: expressed in transfected cells
# CYP2D6 = CYP2D6 (Homo sapiens, UniProt P10635); assay: CYP inhibition in human liver microsomes, dextromethorphan O-demethylation; settings: for Inhibition of CYP2D6 activity (in words): human liver microsomes, extracts 2, 10, 20 µg/mL, alkaloids 1, 10, 100 µM
# Chain of CYP2D6 (P10635 whole entry): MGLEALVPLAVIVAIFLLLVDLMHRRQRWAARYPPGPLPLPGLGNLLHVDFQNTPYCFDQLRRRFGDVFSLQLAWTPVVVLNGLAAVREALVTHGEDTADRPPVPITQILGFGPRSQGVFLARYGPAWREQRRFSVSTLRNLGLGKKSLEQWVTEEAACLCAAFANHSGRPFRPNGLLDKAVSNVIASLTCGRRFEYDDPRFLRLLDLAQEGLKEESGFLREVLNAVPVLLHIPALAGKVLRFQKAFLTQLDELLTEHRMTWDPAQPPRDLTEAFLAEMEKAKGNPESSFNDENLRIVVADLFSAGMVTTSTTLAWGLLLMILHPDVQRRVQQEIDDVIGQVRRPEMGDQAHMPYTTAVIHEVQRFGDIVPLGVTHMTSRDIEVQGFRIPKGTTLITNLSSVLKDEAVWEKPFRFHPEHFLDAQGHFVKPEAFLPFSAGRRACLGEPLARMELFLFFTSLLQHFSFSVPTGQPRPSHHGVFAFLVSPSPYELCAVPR
# human κ-opioid receptor = biological target: T3, human κ-opioid receptor (Homo sapiens, UniProt P41145); assay: biochemical; format: binding
# T3 construct: expressed in transfected cells
# T3 sequence (P41145 whole entry): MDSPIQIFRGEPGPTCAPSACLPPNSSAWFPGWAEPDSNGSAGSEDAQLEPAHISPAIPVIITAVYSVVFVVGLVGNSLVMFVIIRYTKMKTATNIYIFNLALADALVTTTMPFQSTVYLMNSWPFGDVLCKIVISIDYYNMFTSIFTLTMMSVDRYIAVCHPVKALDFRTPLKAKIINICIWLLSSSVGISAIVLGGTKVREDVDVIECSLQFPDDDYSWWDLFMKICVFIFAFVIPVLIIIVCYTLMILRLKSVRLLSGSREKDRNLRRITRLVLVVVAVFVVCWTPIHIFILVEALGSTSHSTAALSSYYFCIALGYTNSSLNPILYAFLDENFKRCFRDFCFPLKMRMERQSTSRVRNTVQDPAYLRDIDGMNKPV
# Chain of hMOR (P35372 whole entry): as the sequence (P35372 whole entry) above
Structure (SMILES),Inhibition of forskolin-stimulated cAMP accumulation (in words) (hMOR),Inhibition of CYP3A activity (in words) (CYP3A),Affinity at the μ-opioid receptor compared to mitragynine [1],Inhibition of CYP2C9 activity (in words) (CYP2C9),β-arrestin-2 recruitment (in words) (µ-opioid receptor [2]),Affinity at δ-opioid receptor (in words) (human δ-opioid receptor),Affinity at µ-opioid receptor (in words) (µ-opioid receptor [3]),Inhibition of CYP2D6 activity (in words) (CYP2D6),Affinity at ƙ-opioid receptor (in words) (human κ-opioid receptor),Emax (hMOR) [%],EC50 (hMOR) [µM],Ki (human δ-opioid receptor) [nM],Ki (µ-opioid receptor [3]) [µM],Ki (human κ-opioid receptor) [µM],"IC50 at 2 min (CYP3A; human, microsomes, pH 7.4) [µM]",IC50 (CYP2C9) [µM],IC50 (CYP2D6) [µM]
"CC[C@@H]1CN2CC[C@@]3(O)C(=Nc4cccc(OC)c43)[C@@H]2C[C@@H]1/C(=C\OC)C(=O)OC [7-Hydroxymitragynine, 7-hydroxymitragynine]",partially inhibit cAMP accumulation,weak inhibitor; also recorded: concentration-dependent inhibition,approximately fivefold greater affinity,weak inhibitor; also recorded: concentration-dependent inhibition,fail to recruit β-arrestin-2,moderate affinity,strong affinity,moderate inhibitor; also recorded: concentration-dependent inhibition,moderate affinity,,,,,,,,
"C[C@@H](NC(=O)[C@@H](N)Cc1ccc(O)cc1)C(=O)NCC(=O)N(C)[C@@H](Cc1ccccc1)C(=O)NCCO [DAMGO, reference compound]",fully inhibit cAMP accumulation,,,,effectively recruit β-arrestin-2,,,,,86.2 ± 1.8,,,,,,,
"CC[C@@H]1CN2CC[C@]3(C(=O)Nc4cccc(O)c43)[C@H]2C[C@@H]1/C(=C\OC)C(=O)OC [Speciofoline, speciofoline]",has no effect,concentration-dependent inhibition,,concentration-dependent inhibition,fail to recruit β-arrestin-2,did not exhibit appreciable affinity,did not exhibit appreciable affinity,concentration-dependent inhibition,did not exhibit appreciable affinity,12.2 ± 3.5,4.24 ± 2.93,> 10000,> 10,> 10,,,
"CC[C@@H]1CN2CCc3c([nH]c4cccc(OC)c34)[C@@H]2C[C@@H]1/C(=C\OC)C(=O)OC [Mitragynine, mitragynine]",partially inhibit cAMP accumulation,concentration-dependent inhibition,,concentration-dependent inhibition,fail to recruit β-arrestin-2,,moderate affinity,stronger inhibition than speciofoline; also recorded: concentration-dependent inhibition,moderate affinity,,,> 10000,,0.482 ± 0.029,10 to 100,10 to 100,~1
